Consider 5 compounds from ChEMBL document CHEMBL1130457, “Design and synthesis of a novel class of thrombin inhibitors incorporating heterocyclic dipeptide surrogates” (Bioorg Med Chem Lett, 1997).

Each structure is given as a SMILES string.

Targets include Coagulation factor X (Homo sapiens, UniProt P00742); Plasminogen (Homo sapiens, UniProt P00747); Prothrombin (Homo sapiens, UniProt P00734); Serine protease 1 (Homo sapiens, UniProt P07477).
Assay [1] addresses Tissue-type plasminogen activator (Homo sapiens, UniProt P00750). Kind of assay: Inhibitory concentration required to inhibit human Tissue type plasminogen activator was determined.

Sequence of Plasminogen (P00747 97-580 limits assumed): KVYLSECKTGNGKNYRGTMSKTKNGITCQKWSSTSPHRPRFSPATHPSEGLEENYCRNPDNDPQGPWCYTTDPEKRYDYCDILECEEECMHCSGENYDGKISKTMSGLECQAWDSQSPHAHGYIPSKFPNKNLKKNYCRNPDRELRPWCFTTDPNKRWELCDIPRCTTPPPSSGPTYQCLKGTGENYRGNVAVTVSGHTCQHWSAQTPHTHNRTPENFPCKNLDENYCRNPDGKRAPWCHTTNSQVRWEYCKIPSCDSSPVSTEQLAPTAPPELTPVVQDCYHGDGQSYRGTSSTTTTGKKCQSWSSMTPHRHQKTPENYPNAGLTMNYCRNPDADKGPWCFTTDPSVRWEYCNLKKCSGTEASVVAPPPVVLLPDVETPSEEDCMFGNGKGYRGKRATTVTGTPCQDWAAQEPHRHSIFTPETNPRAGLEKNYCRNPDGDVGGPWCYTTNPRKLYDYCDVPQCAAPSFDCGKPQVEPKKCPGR
Sequence of Plasminogen (P00747 581-810 limits assumed): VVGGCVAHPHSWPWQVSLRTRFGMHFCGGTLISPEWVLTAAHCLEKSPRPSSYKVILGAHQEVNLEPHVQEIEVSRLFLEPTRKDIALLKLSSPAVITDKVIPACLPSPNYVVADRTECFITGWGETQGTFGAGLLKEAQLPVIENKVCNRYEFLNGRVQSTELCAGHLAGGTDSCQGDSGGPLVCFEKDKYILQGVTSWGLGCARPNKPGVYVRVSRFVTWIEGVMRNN
Sequence of Serine protease 1 (P07477 whole entry): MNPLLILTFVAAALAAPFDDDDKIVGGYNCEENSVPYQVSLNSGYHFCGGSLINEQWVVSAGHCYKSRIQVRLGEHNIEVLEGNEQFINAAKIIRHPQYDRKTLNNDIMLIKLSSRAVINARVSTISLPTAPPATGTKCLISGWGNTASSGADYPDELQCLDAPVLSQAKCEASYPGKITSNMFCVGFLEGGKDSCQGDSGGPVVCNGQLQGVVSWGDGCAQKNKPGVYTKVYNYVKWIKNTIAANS
Sequence of Coagulation factor X (P00742 41-179 limits assumed): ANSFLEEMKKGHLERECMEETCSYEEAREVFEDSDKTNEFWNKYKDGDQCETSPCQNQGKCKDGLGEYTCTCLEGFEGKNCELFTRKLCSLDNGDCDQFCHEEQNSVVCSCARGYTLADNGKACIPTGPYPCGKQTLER
Sequence of Coagulation factor X (P00742 235-488 limits assumed): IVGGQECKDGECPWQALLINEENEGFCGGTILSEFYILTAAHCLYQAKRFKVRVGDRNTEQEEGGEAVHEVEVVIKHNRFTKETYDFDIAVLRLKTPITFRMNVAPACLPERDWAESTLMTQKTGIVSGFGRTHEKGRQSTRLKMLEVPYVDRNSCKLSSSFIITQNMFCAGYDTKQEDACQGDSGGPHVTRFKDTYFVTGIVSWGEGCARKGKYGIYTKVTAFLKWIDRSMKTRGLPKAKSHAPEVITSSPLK
Sequence of Tissue-type plasminogen activator (P00750 whole entry): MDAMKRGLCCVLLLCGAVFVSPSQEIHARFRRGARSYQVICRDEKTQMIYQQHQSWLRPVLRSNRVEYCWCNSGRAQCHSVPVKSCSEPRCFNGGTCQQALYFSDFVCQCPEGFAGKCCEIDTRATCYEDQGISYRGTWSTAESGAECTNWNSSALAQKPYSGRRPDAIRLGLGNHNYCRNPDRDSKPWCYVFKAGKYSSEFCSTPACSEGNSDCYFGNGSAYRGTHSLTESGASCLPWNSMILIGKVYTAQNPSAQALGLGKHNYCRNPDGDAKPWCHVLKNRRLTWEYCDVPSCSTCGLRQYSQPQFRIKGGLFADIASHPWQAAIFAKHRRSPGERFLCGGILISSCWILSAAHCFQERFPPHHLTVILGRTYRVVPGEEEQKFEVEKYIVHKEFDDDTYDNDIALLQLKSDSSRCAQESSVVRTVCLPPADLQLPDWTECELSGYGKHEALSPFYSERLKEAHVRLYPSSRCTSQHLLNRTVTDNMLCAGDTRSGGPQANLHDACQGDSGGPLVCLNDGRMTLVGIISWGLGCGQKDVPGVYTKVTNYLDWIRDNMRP
Description for Prothrombin: Inhibitory concentration required to inhibit human thrombin enzyme was determined

The IC50 is the concentration needed to halve the response being measured. In the case of `Cn1cc(NS(=O)(=O)Cc2ccccc2)c(=O)n(CC(=O)N[C@H]2CCCN(C(=N)N)C2O)c1=O` (stereo not given in full), the IC50 in assay [1] was over 2500 nM; on Coagulation factor X, 2500 nM; against Plasminogen, over 2500 nM; at Prothrombin, 141 nM; at Serine protease 1, 396 nM.

On to `N=C(N)N1CCC[C@H](NC(=O)Cn2cccc(NS(=O)(=O)Cc3ccccc3)c2=O)C1O` (stereo not given in full), for which the IC50 in assay [1] was over 2500 nM; against Coagulation factor X, 20.9 nM; at Plasminogen, over 2500 nM; on Prothrombin it was 0.505 nM; on Serine protease 1, 26.2 nM.

As for `N=C(N)N1CCC[C@H](NC(=O)CN2CCC[C@H](NS(=O)(=O)Cc3ccccc3)C2=O)C1O` (stereo not given in full), the IC50 in assay [1] is over 2500 nM; against Coagulation factor X, 2500 nM; on Plasminogen, over 2500 nM; against Prothrombin it was 6.2 nM; against Serine protease 1, 791 nM.

As to `Cc1ncc(NS(=O)(=O)Cc2ccccc2)c(=O)n1CC(=O)N[C@H]1CCCN(C(=N)N)C1O` (stereo not given in full), the IC50 is over 2500 nM in assay [1]; 905 nM on Coagulation factor X; over 2500 nM against Plasminogen; 2.32 nM at Prothrombin; 160 nM on Serine protease 1.

As for `Cc1ccc(NS(=O)(=O)Cc2ccccc2)c(=O)n1CC(=O)N[C@H]1CCCN(C(=N)N)C1O` (stereo not given in full), the IC50 in assay [1] is over 2500 nM; on Coagulation factor X it was 447 nM; against Plasminogen it was over 2500 nM; at Prothrombin, 0.467 nM; at Serine protease 1, 10.9 nM.
